Measured values as given in EP4714953A1, “MELANOCORTIN 2-TYPE RECEPTOR ANTAGONIST” (Scohia Pharma, Inc., priority 2023, dated 2024).
Structures can show the parent of a compound that is named as a salt. Values belong to the compound of their own block, whether it stands above or below them.

Target: T1, human MC2R (Homo sapiens, UniProt Q01718)
T1 construct: host or cells: GeneBLAzer MC2R-CRE-bla CHO-K1 cells
Experiment: Measurement of human MC2R inhibitory activity using intracellular cAMP concentration as an indicator
Assay type: cell-based
Conditions: test compound at 1 µM, GeneBLAzer MC2R-CRE-bla CHO-K1 cells, ACTH (Human 1-24) final concentration 3 pM, intracellular cAMP by HTRF; for inhibition at 1 µM: read-out: MC2R inhibition rate (% of inhibition)
Experimental: Experimental Example 1: Measurement of human MC2R inhibitory activity using intracellular cAMP concentration as an indicator
GeneBLAzer MC2R-CRE-bla CHO-K1 cells (Thermo Fisher Scientific) that had been cryopreserved in advance were thawed and suspended in a medium [Dulbecco's Modified Eagle Medium (Thermo Fisher Scientific) containing fetal bovine serum (10% (v/v), HyClone Laboratories), Non-Essential Amino Acids Solution (1/100 (w/w), Thermo Fisher Scientific), HEPES (25 mM, Thermo Fisher Scientific), Penicillin/Streptomycin (1/100 (w/w), Fujifilm Wako)]. After centrifuging the cell suspension, the supernatant was removed, the cells were suspended in D-PBS(-) (Fujifilm Wako), and the supernatant was removed again after centrifugation. The cells were resuspended in an assay buffer [Hank's Balanced Salt Solution (Thermo Fisher Scientific) containing HEPES pH 7.5 (10 mM, Thermo Fisher Scientific), fatty acid-free bovine serum albumin (0.01% (w/v), Sigma), IBMX (500 µM, Fujifilm Wako)] and added to a 384-well white plate (Greiner) at 1,500 cells/well. Then, the test compound prepared using the assay buffer was added, and after standing for 20 min, an assay buffer containing ACTH (Human 1-24) (Peptide Institute) was added (ACTH final concentration, 3 pM). After standing at room temperature for 30 min, the intracellular cAMP level was measured using cAMP Gs HiRange kit HTRF (PerkinElmer). The inhibition rate (%) of the compound against MC2R was calculated using the following formula. Inhibition rate (%) = […] [formula] • A: cAMP concentration calculated from wells containing 3 pM ACTH (1-24) • B: cAMP concentration calculated from wells without addition of 3 pM ACTH (1-24) • C: cAMP concentration calculated from wells containing 3 pM ACTH (1-24) and test compound at concentration determined in advance

T1 sequence (Q01718 whole entry): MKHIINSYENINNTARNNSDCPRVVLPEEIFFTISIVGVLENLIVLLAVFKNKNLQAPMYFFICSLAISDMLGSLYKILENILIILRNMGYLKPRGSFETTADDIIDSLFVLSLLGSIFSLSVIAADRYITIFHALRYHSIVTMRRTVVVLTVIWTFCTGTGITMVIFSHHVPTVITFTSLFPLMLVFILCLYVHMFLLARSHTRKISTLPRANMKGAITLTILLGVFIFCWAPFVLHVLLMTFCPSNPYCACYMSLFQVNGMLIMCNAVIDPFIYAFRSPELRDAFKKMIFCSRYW
T1 sequence (Q8TCY5 whole entry partner): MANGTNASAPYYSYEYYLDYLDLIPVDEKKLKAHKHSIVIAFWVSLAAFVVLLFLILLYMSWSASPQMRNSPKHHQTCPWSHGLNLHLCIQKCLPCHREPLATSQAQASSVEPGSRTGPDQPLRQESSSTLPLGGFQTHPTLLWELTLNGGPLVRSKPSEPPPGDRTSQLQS

SMILES: CCOc1ncccc1-c1ccc(N2CCN3C(=O)N(c4ccc(Cl)cc4C(F)(F)F)CC3(C)C2)c(C=O)n1 (stereo not drawn) [Example 9, 3-[2-[4-chloro-2-(trifluoromethyl)phenyl]-8a-methyl-3-oxo-1,5,6,8-tetrahydroimidazo[1,5-a]pyrazin-7-yl]-6-(2-ethoxypyridin-3-yl)pyridine-2-carbaldehyde]
inhibition at 1 µM: 99%

SMILES: CCOc1ncccc1-c1ccc(N2C[C@H]3CN(c4ccc(F)cc4C(F)(F)F)C(=O)N3C[C@H]2CC)c(C(=O)N[C@@H]2CC(=O)N(C)C2)n1 [Example 52, 3-[(6R,8aS)-6-ethyl-2-[4-fluoro-2-(trifluoromethyl)phenyl]-3-oxo-5,6,8,8a-tetrahydro-1H-imidazo[1,5-a]pyrazin-7-yl]-6-(2-ethoxypyridin-3-yl)-N-[(3R)-1-methyl-5-oxopyrrolidin-3-yl]pyridine-2-carboxamide]
inhibition at 1 µM: 100%

SMILES: CCOc1ncccc1-c1ccc(N2C[C@H]3CN(c4ccc(Cl)cc4C(F)(F)F)C(=O)N3C[C@H]2CC)c(C(=O)NC[C@H]2CCN2C(=O)OC(C)(C)C)n1 [Example 43, tert-butyl (2R)-2-[[[3-[(6R,8aS)-2-[4-chloro-2-(trifluoromethyl)phenyl]-6-ethyl-3-oxo-5,6,8,8a-tetrahydro-1H-imidazo[1,5-a]pyrazin-7-yl]-6-(2-ethoxypyridin-3-yl)pyridine-2-carbonyl]amino]methyl]azetidine-1-carboxylate]
inhibition at 1 µM: 100%

SMILES: CCOc1ncccc1-c1ccc(N2CCN3C(=O)N(c4ccc(Cl)cc4C(F)(F)F)C[C@@H]3C2)c(C(=O)NC2CCN(C(=O)OC(C)(C)C)C2)n1 (stereo partly drawn) [Example 17, tert-butyl 3-[[3-[(8aS)-2-[4-chloro-2-(trifluoromethyl)phenyl]-3-oxo-5,6,8,8a-tetrahydro-1H-imidazo[1,5-a]pyrazin-7-yl]-6-(2-ethoxypyridin-3-yl)pyridine-2-carbonyl]amino]pyrrolidine-1-carboxylate]
inhibition at 1 µM: 91%

SMILES: CCOc1ncccc1-c1ccc(N2CCN3C(=O)N(c4ccc(Cl)cc4C(F)(F)F)C[C@@H]3C2)c(C(=O)NC2CCNC2)n1 (stereo partly drawn) [Example 24, 3-[(8aS)-2-[4-chloro-2-(trifluoromethyl)phenyl]-3-oxo-5,6,8,8a-tetrahydro-1H-imidazo[1,5-a]pyrazin-7-yl]-6-(2-ethoxypyridin-3-yl)-N-pyrrolidin-3-ylpyridine-2-carboxamide 2hydrochloride]
MC2R inhibition rate (% of inhibition): 100%

SMILES: CCOc1ccccc1-c1ccc(N2C[C@H]3CN(c4ccc(Cl)cc4C(F)(F)F)C(=O)N3C[C@H]2CC)c(C(=O)N[C@@H]2CC(=O)N(C)C2)n1 [Example 67, 3-[(6R,8aS)-2-[4-chloro-2-(trifluoromethyl)phenyl]-6-ethyl-3-oxo-5,6,8,8a-tetrahydro-1H-imidazo[1,5-a]pyrazin-7-yl]-6-(2-ethoxyphenyl)-N-[(3R)-1-methyl-5-oxopyrrolidin-3-yl]pyridine-2-carboxamide]
inhibition at 1 µM: 94%

SMILES: CCOc1ccccc1-c1ccc(N2C[C@H]3CN(C4(C(F)(F)F)CC4)C(=O)N3C[C@H]2CC)c(C(=O)N[C@@H]2CC(=O)N(C)C2)n1 [Example 62, 3-[(6R,8aS)-6-ethyl-3-oxo-2-[1-(trifluoromethyl)cyclopropyl]-5,6,8,8a-tetrahydro-1H-imidazo[1,5-a]pyrazin-7-yl]-6-(2-ethoxyphenyl)-N-[(3R)-1-methyl-5-oxopyrrolidin-3-yl]pyridine-2-carboxamide]
inhibition at 1 µM: 98%

SMILES: CCOc1ncccc1-c1ccc(N2C[C@H]3CN(c4ccc(Cl)cc4C(F)(F)F)C(=O)N3C[C@H]2CC)c(C(=O)NC[C@H]2CCN2)n1 [Example 44, 3-[(6R,8aS)-2-[4-chloro-2-(trifluoromethyl)phenyl]-6-ethyl-3-oxo-5,6,8,8a-tetrahydro-1H-imidazo[1,5-a]pyrazin-7-yl]-N-[[(2R)-azetidin-2-yl]methyl]-6-(2-ethoxypyridin-3-yl)pyridine-2-carboxamide]
inhibition at 1 µM: 100%

SMILES: CCOc1ncccc1-c1ccc(N2C[C@H]3CN(c4ccc(Cl)cc4C(F)(F)F)C(=O)N3C[C@H]2CC)c(C(=O)NCC(C)(C)O)n1 [Example 35, 3-[(6R,8aS)-2-[4-chloro-2-(trifluoromethyl)phenyl]-6-ethyl-3-oxo-5,6,8,8a-tetrahydro-1H-imidazo[1,5-a]pyrazin-7-yl]-6-(2-ethoxypyridin-3-yl)-N-(2-hydroxy-2-methylpropyl)pyridine-2-carboxamide]
inhibition at 1 µM: 100%

SMILES: CCOc1ncccc1-c1ccc(N2CCN3C(=O)N(c4ccc(Cl)cc4C(F)(F)F)C[C@@H]3C2)c(C(=O)NCCOC)n1 [Example 12, 3-[(8aS)-2-[4-chloro-2-(trifluoromethyl)phenyl]-3-oxo-5,6,8,8a-tetrahydro-1H-imidazo[1,5-a]pyrazin-7-yl]-6-(2-ethoxypyridin-3-yl)-N-(2-methoxyethyl)pyridine-2-carboxamide]
inhibition at 1 µM: 100%

SMILES: CCOc1ncccc1-c1ccc(N2CCN3C(=O)N(C4(C(F)(F)F)CCCC4)CC3C2)c(C(N)=O)n1 (stereo not drawn) [Example 3, 6-(2-ethoxypyridin-3-yl)-3-[3-oxo-2-[1-(trifluoromethyl)cyclopentyl]-5,6,8,8a-tetrahydro-1H-imidazo[1,5-a]pyrazin-7-yl]pyridine-2-carboxamide]
inhibition at 1 µM: 81%

SMILES: CCOc1ncccc1-c1ccc(N2C[C@H]3CN(c4ccc(Cl)cc4C(F)(F)F)C(=O)N3C[C@H]2CC)c(C(=O)NC2CC(=O)N(C)C2)n1 (stereo partly drawn) [Example 42, 3-[(6R,8aS)-2-[4-chloro-2-(trifluoromethyl)phenyl]-6-ethyl-3-oxo-5,6,8,8a-tetrahydro-1H-imidazo[1,5-a]pyrazin-7-yl]-6-(2-ethoxypyridin-3-yl)-N-(1-methyl-5-oxopyrrolidin-3-yl)pyridine-2-carboxamide]
inhibition at 1 µM: 100%

Other lines, results leading:

inhibition at 1 µM: 96%
SMILES: CC[C@@H]1CN2C(=O)N(c3ccc(Cl)cc3C(F)(F)F)C[C@@H]2CN1c1ccc(-c2ccccc2OC)nc1C(=O)N[C@@H]1CC(=O)N(C)C1 [Example 68, 3-[(6R,8aS)-2-[4-chloro-2-(trifluoromethyl)phenyl]-6-ethyl-3-oxo-5,6,8,8a-tetrahydro-1H-imidazo[1,5-a]pyrazin-7-yl]-6-(2-methoxyphenyl)-N-[(3R)-1-methyl-5-oxopyrrolidin-3-yl]pyridine-2-carboxamide]

inhibition at 1 µM: 97%
SMILES: CCOc1ccccc1-c1ccc(N2C[C@H]3CN(C4(C(F)(F)F)CCC4)C(=O)N3C[C@H]2CC)c(C(=O)N[C@@H]2CC(=O)N(C)C2)n1 [Example 66, 3-[(6R,8aS)-6-ethyl-3-oxo-2-[1-(trifluoromethyl)cyclobutyl]-5,6,8,8a-tetrahydro-1H-imidazo[1,5-a]pyrazin-7-yl]-6-(2-ethoxyphenyl)-N-[(3R)-1-methyl-5-oxopyrrolidin-3-yl]pyridine-2-carboxamide]

inhibition at 1 µM: 100%
SMILES: CCOc1ncccc1-c1ccc(N2C[C@H]3CN(c4ccc(Cl)cc4C#N)C(=O)N3C[C@H]2CC)c(C(=O)N[C@@H]2CC(=O)N(C)C2)n1 [Example 54, 3-[(6R,8aS)-2-(4-chloro-2-cyanophenyl)-6-ethyl-3-oxo-5,6,8,8a-tetrahydro-1H-imidazo[1,5-a]pyrazin-7-yl]-6-(2-ethoxypyridin-3-yl)-N-[(3R)-1-methyl-5-oxopyrrolidin-3-yl]pyridine-2-carboxamide]

inhibition at 1 µM: 100%
SMILES: CCOc1ncccc1-c1ccc(N2CCN3C(=O)N(c4ccc(Cl)cc4C(F)(F)F)CC3C2)c(C(=O)NCCN(C)C)n1 (stereo not drawn) [Example 4, 3-[2-[4-chloro-2-(trifluoromethyl)phenyl]-3-oxo-5,6,8,8a-tetrahydro-1H-imidazo[1,5-a]pyrazin-7-yl]-N-[2-(dimethylamino)ethyl]-6-(2-ethoxypyridin-3-yl)pyridine-2-carboxamide]

inhibition at 1 µM: 100%
SMILES: CCOc1ncccc1-c1ccc(N2CCN3C(=O)N(c4ccc(Cl)cc4C(F)(F)F)C[C@@H]3C2)c(C=O)n1 [Example 5, 3-[(8aS)-2-[4-chloro-2-(trifluoromethyl)phenyl]-3-oxo-5,6,8,8a-tetrahydro-1H-imidazo[1,5-a]pyrazin-7-yl]-6-(2-ethoxypyridin-3-yl)pyridine-2-carbaldehyde]

inhibition at 1 µM: 100%
SMILES: CCOc1ncccc1-c1ccc(N2CCN3C(=O)N(c4ccc(Cl)cc4C(F)(F)F)C[C@@H]3C2)c(C(=O)NCCCc2ccccn2)n1 [Example 14, 3-[(8aS)-2-[4-chloro-2-(trifluoromethyl)phenyl]-3-oxo-5,6,8,8a-tetrahydro-1H-imidazo[1,5-a]pyrazin-7-yl]-6-(2-ethoxypyridin-3-yl)-N-(3-pyridin-2-ylpropyl)pyridine-2-carboxamide]
